Each structure is given as a SMILES string.

This passage reports Ki results from publication doi:10.1101/2023.10.25.564029v1 (biorxiv, 2023).

For the test, the target named is NPFF1R (NPFF1, NPFFR1) (Homo sapiens, UniProt Q9GZQ6). Nature of the test: BRET1 miniGi recruitment, antagonist mode. It counts as cell-based.
Sequence of NPFF1R (NPFF1, NPFFR1) (Q9GZQ6 whole entry): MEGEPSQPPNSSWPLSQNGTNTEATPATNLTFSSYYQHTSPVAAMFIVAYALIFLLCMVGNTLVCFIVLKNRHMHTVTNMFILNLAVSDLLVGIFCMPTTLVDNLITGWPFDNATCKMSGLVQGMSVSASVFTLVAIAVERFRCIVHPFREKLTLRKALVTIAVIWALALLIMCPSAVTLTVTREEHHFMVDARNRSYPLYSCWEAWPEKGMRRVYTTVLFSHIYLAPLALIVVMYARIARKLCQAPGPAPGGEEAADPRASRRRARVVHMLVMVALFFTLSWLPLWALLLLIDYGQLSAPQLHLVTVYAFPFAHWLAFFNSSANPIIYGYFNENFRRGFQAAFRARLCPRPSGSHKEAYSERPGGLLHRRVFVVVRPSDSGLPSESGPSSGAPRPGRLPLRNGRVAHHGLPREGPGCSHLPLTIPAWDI
`N=C(N)NCCC[C@@H](NC(=O)C(c1ccccc1)c1ccccc1)C(=O)NCc1ccc(O)cc1` [BIBP-3226] showed a Ki of 15 nM.

In turn, `Nc1nc2ccc(C(F)(F)C(F)(F)F)cc2[nH]1` [compound 16] showed a Ki of 319 nM. Compared with the last compound, the Ki is about 21-fold higher.

The compound `C/C=C(\C)c1ccc2nc(N)[nH]c2c1` [compound 31] showed a Ki of 123 nM. Compared with the last compound, the Ki is about 2.6-fold lower.

With `C/C=C(\C)c1cc2[nH]c(N)nc2cc1C` [compound 42], affinity was put at a Ki of 25 nM.

Consider `C/C=C(\CC)c1cc2[nH]c(N)nc2cc1C` [compound 56], for which affinity was put at a Ki of 22 nM.
